In series [1] the target is Sodium-dependent noradrenaline transporter (Homo sapiens, UniProt P23975). The experiment in a line: Inhibition of wild type human NET expressed in HEK293 cells assessed as inhibition of [3H]-MPP+ reuptake preincubated for 5 mins followed by [3H]MPP+ addition and measured after 3 mins by liquid scintillation counting analysis. As to conditions: for IC50: hek293; for pIC50: read-out: IC50. It is filed as cell-based.

The target in series [2] is Sodium-dependent serotonin transporter (Homo sapiens, UniProt P31645). It is filed as cell-based, HEK293. The conditions noted are these: for IC50: hek293; for pIC50: read-out: IC50.
Chain of Sodium-dependent serotonin transporter (P31645 whole entry): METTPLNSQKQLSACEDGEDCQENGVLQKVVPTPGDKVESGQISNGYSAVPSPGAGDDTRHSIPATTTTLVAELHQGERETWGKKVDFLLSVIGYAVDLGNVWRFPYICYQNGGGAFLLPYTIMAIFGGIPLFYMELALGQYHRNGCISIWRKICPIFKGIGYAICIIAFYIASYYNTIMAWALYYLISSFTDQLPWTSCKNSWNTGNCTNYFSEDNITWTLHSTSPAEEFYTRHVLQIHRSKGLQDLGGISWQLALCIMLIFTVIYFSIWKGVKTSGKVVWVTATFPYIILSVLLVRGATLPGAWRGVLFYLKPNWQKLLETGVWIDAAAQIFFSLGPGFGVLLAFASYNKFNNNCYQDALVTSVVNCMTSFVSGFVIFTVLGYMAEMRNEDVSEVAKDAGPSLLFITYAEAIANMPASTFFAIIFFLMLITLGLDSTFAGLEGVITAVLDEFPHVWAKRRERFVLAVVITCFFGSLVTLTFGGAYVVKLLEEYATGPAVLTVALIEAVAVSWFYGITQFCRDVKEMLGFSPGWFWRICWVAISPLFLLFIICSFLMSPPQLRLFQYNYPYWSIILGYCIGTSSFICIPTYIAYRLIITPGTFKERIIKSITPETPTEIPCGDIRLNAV
Description: Inhibition of wild type human SERT expressed in HEK293 cells assessed as inhibition of [3H]-5HT reuptake preincubated for 5 mins followed by [3H]5HT addition and measured after 1 min by liquid scintillation counting analysis
Series [3] in a line: Cardiotoxicity in human Cor.4U hiPSC-CM cells assessed as early after depolarization at 10 uM measured after 30 mins by FluoVolt dye based fluorescence assay. Format: toxicity. As to conditions: 0.5 h.
Series [4] addresses Sodium-dependent dopamine transporter (Homo sapiens, UniProt Q01959). Nature of the series: Inhibition of wild type human dopamine transporter expressed in HEK293 cells assessed as inhibition of [3H]dopamine reuptake preincubated for 5 mins followed by [3H]dopamine addition and measured after 1 min by liquid scintillation analysis. Format: cell-based. As to conditions: for pIC50: read-out: IC50; for IC50: hek293.

A short description of series [5]: Cardiotoxicity in human Cor.4U hiPSC-CM cells assessed as effect on action potential shape at 10 uM measured after 30 mins by FluoVolt dye based fluorescence assay. It is filed as toxicity. As to conditions: 0.5 h.
Series [6] in a line: Cardiotoxicity in human Cor.4U hiPSC-CM cells assessed as effect on action potential duration at 10 uM measured after 30 mins by FluoVolt dye based fluorescence assay. Format: toxicity. As to conditions: 0.5 h.

pIC50: −log10 of the molar value.

Chain of Sodium-dependent noradrenaline transporter (P23975 whole entry): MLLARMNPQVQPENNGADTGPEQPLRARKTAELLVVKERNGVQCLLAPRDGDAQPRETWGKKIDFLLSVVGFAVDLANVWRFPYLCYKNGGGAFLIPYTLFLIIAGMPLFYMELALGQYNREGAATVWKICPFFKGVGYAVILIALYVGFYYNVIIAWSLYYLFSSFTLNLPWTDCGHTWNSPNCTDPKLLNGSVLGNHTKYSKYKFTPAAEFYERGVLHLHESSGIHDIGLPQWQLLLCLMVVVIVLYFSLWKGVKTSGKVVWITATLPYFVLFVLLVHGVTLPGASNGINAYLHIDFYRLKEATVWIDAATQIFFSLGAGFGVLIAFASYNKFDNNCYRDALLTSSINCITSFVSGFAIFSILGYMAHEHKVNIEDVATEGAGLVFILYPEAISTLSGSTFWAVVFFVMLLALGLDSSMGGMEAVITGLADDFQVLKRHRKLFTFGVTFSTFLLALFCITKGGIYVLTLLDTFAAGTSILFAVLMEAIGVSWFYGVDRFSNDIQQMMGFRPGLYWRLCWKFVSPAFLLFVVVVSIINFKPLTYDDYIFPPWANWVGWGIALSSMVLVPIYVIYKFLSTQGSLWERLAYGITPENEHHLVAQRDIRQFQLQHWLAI
Chain of Sodium-dependent dopamine transporter (Q01959 whole entry): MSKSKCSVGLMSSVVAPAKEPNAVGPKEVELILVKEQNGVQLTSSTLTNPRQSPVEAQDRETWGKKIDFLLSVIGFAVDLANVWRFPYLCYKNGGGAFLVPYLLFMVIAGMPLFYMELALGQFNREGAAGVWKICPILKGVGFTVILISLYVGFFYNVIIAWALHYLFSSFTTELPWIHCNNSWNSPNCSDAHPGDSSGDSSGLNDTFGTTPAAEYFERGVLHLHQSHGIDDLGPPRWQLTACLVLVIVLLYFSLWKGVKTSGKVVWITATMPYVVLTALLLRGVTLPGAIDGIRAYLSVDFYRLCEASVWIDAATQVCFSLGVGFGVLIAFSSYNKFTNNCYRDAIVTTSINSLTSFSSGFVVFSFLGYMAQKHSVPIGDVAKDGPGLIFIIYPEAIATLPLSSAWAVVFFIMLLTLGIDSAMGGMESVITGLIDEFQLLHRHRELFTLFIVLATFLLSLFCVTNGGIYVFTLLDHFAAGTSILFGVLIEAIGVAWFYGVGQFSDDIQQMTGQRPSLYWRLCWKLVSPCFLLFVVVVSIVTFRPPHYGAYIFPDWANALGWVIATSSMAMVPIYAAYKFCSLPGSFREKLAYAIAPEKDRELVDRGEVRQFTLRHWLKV

By pIC50 is commonly meant −log10 of the IC50, conventionally taken in molar units. In the case of `[O-][S@+](Cc1cscn1)[C@@H](c1ccccc1)c1ccc(Br)cc1`, the IC50 result in series [1] and in series [2] was “Not Active” throughout. The Activity result in series [3], in series [5] and in series [6] was “Non-Toxic” throughout. Further, the pIC50 in series [4] was 4.20.
For `[O-][S+](Cc1nccs1)C1c2ccccc2-c2ccccc21` (configuration not stated), the IC50 entry in series [1], in series [2] and in series [4] was “Not Active” throughout.
For `COc1ncc(C[S+]([O-])C(c2ccccc2)c2ccccc2)s1` (configuration not stated), the pIC50 was 3.86 in series [1] and 4.14 in series [4]. Besides, the IC50 entry in series [2] is “Not Active”.
In the same order, the values of `[O-][S@@+](Cc1cncs1)[C@@H](c1ccccc1)c1ccc(Cl)cc1` are 4.14, 5.64 and “Not Active”.
With `[O-][S+](Cc1cncs1)C(c1ccc(F)cc1)c1ccc(F)cc1` (racemic), the pIC50 in series [1] was 3.92; in series [4], 5.21. In addition, in series [2], the IC50 entry was “Not Active”.
As to `[O-][S@@+](Cc1cncs1)[C@@H](c1ccccc1)c1ccc(C(F)(F)F)cc1`, the IC50 entry in series [1] and in series [2] was “Not Active” in each case. Moreover, the pIC50 in series [4] was 4.40.
Take `[O-][S@+](Cc1cncs1)C(c1ccc(F)cc1)c1ccc(F)cc1`: the IC50 entry in series [1] and in series [2] was “Not Active” in each case. Moreover, the negative-log IC50 (pIC50) in series [4] was 4.65.
In the case of `CCc1nc(C[S+]([O-])C(c2ccccc2)c2ccccc2)cs1` (configuration not stated), the IC50 entry in series [1] and in series [2] was “Not Active” each time. Also, the pIC50 in series [4] is 4.83.
Turning to `Cc1ccc(C(c2ccc(C)cc2)[S+]([O-])Cc2nccs2)cc1` (configuration not stated), the IC50 entry in series [1] and in series [2] was “Not Active” each time. For the same molecule, the pIC50 in series [4] was 4.53.
For the molecule `[O-][S@@+](Cc1cncs1)[C@@H](c1ccccc1)c1ccc(Br)cc1`, the negative-log IC50 (pIC50) was 3.25 in series [1] and 5.80 in series [4]. Further, in series [2], the IC50 entry is listed as “Not Active”.
As to `[O-][S@+](Cc1cncs1)[C@@H](c1ccccc1)c1ccc(F)cc1`, the IC50 entry in series [1] and in series [2] was “Not Active” in each case. In series [4], the pIC50 was 4.56.
`COc1ccc([C@@H](c2ccccc2)[S@@+]([O-])Cc2cncs2)cc1`: the IC50 entry in series [1] was “Not Active”. Moreover, the pIC50 in series [2] is 3.44; in series [4], 4.91.
As for `[O-][S@@+](Cc1cncs1)[C@H](c1ccccc1)c1ccc(Cl)cc1`, the values for the pIC50 in series [1] and in series [4] were 4.41 and 5.44, respectively. Also, in series [2], the IC50 entry is recorded as “Not Active”.
For `[O-][S@@+](Cc1cncs1)C(c1ccc(F)cc1)c1ccc(F)cc1`, the pIC50 is 4.07 in series [1] and 5.28 in series [4]. Besides, in series [2], the IC50 result is recorded as “Not Active”.
`[O-][S@+](Cc1cncs1)[C@H](c1ccccc1)c1ccc(Cl)cc1`: the pIC50 is 4.44 in series [1], 3.85 in series [2] and 5.13 in series [4].
For `[O-][S@@+](Cc1cncs1)[C@H](c1ccccc1)c1ccc(Br)cc1`, the results for the pIC50 in series [1] and in series [4] were 4.17 and 5.38, respectively. In addition, in series [2], the IC50 result is on record as “Not Active”.
With `[O-][S@+](Cc1cncs1)[C@H](c1ccccc1)c1ccc(F)cc1`, the pIC50 is 3.64 in series [1], 3.84 in series [2] and 5.08 in series [4].
On the same counts, the results for `Cc1ccc([C@@H](c2ccccc2)[S@+]([O-])Cc2cncs2)cc1` are 4.17, 3.70 and 4.71.
Take `Cc1nc(C[S+]([O-])C(c2ccccc2)c2ccccc2)c(C)s1` (configuration not stated): the IC50 result in series [1] and in series [2] was “Not Active” each time. For the same molecule, the pIC50 in series [4] is 4.32.
Take `CCCc1nc(C[S+]([O-])C(c2ccccc2)c2ccccc2)cs1` (configuration not stated): the IC50 entry in series [1] and in series [2] was “Not Active” each time. The pIC50 in series [4] is 4.55.
Take `CC(C)c1nc(C[S+]([O-])C(c2ccccc2)c2ccccc2)cs1` (configuration not stated): the IC50 result in series [1] and in series [2] was “Not Active” in each case. Further, in series [4], the pIC50 is 4.61.
On to `[O-][S@+](Cc1cncs1)[C@H](c1ccccc1)c1ccc(Br)cc1`, for which the pIC50 was 4.64 in series [1], 4.53 in series [2] and 5.33 in series [4].
Consider `CC(C)(C)c1ncc(C[S+]([O-])C(c2ccccc2)c2ccccc2)s1` (configuration not stated), for which the IC50 entry in series [1] and in series [2] was “Not Active” in each case. For the same molecule, the pIC50 in series [4] is 4.22.
On to `[O-][S+](Cc1csc(Cl)n1)C(c1ccccc1)c1ccccc1` (racemic), for which the IC50 entry in series [1] and in series [2] was “Not Active” throughout. Further, in series [4], the pIC50 is 5.52.
With `COc1ccc(C(c2ccc(OC)cc2)[S+]([O-])Cc2csc(C3CC3)n2)cc1` (configuration not stated), the IC50 entry in series [1] and in series [2] was “Not Active” throughout. In series [4], the pIC50 was 3.98.
On to `COc1ccc([C@H](c2ccccc2)[S@+]([O-])Cc2cncs2)cc1`, for which the IC50 entry in series [1] and in series [2] was “Not Active” each time. Moreover, the pIC50 in series [4] is 4.19.
With `Cc1ccc(C(c2ccc(C)cc2)[S+]([O-])Cc2cscn2)cc1` (configuration not stated), the IC50 result in series [1] and in series [2] was “Not Active” each time. The pIC50 in series [4] is 5.14.
Consider `[O-][S@+](Cc1cncs1)[C@@H](c1ccccc1)c1ccc(C(F)(F)F)cc1`, for which the IC50 result in series [1], in series [2] and in series [4] was “Not Active” throughout.
In the case of `[O-][S@+](Cc1cncs1)C(c1ccc(Cl)cc1)c1ccc(Cl)cc1`, the IC50 entry in series [1] and in series [2] was “Not Active” each time. Moreover, the pIC50 in series [4] is 4.42.
Take `Cc1nc(CC[S+]([O-])C(c2ccccc2)c2ccccc2)cs1` (configuration not stated): the IC50 result in series [1] and in series [2] was “Not Active” in each case. Moreover, the negative logarithm of the IC50 (pIC50) in series [4] is 4.21.
As to `[O-][S+](Cc1nccs1)C(c1ccc(Cl)cc1)c1ccc(Cl)cc1` (configuration not stated), the IC50 result in series [1] and in series [2] was “Not Active” in each case. Besides, in series [4], the pIC50 was 5.02.
As to `Cc1nc(CSC(c2ccccc2)c2ccccc2)cs1`, the pIC50 in series [1] is 3.89; in series [4] it was 4.04. The IC50 entry in series [2] is reported as “Not Active”.
As to `[O-][S@@+](Cc1cscn1)[C@H](c1ccccc1)c1ccc(Br)cc1`, the IC50 entry in series [1] and in series [2] was “Not Active” each time. For the same molecule, the Activity entry in series [3], in series [5] and in series [6] was “Non-Toxic” throughout. Further, the pIC50 in series [4] was 5.52.
`COc1ccc(C(c2ccc(OC)cc2)[S+]([O-])Cc2cncs2)cc1` (configuration not stated): the IC50 result in series [1] and in series [2] was “Not Active” throughout. Besides, the pIC50 in series [4] is 4.15.
As to `[O-][S+](Cc1csc(-c2cccs2)n1)C(c1ccccc1)c1ccccc1` (racemic), the results for the pIC50 in series [1] and in series [4] were 3.96 and 5.16, respectively. Moreover, the IC50 result in series [2] was “Not Active”.
As for `Cc1ccc(C(c2ccc(C)cc2)[S+]([O-])Cc2csc(C3CC3)n2)cc1` (configuration not stated), the IC50 result in series [1], in series [2] and in series [4] was “Not Active” throughout.
With `[O-][S@+](Cc1cscn1)[C@H](c1ccccc1)c1ccc(Br)cc1`, the pIC50 in series [1] is 4.28; in series [2], 4.23; in series [4], 5.96. Further, the Activity entry in series [3], in series [5] and in series [6] was “Non-Toxic” in each case.
Regarding `[O-][S+](Cc1cnc(Cl)s1)C(c1ccccc1)c1ccccc1` (configuration not stated), the pIC50 in series [1] is 3.97; in series [4], 4.61. In addition, the IC50 entry in series [2] is “Not Active”.
For `COc1ccc([C@@H](c2ccccc2)[S@+]([O-])Cc2cncs2)cc1`, the values for the pIC50 in series [1], in series [2] and in series [4] were 3.58, 4.61 and 4.44, respectively.
Take `[O-][S@@+](Cc1cncs1)[C@H](c1ccccc1)c1ccc(F)cc1`: the pIC50 in series [1] was 3.98; in series [4] it was 5.13. In series [2], the IC50 result was “Not Active”.
On the same counts, the results for `[O-][S+](Cc1cscn1)C(c1ccc(Cl)cc1)c1ccc(Cl)cc1` (configuration not stated) are 3.97, 5.30 and “Not Active”.
Regarding `[O-][S+](Cc1csc(C2CC2)n1)C(c1ccccc1)c1ccccc1` (configuration not stated), the pIC50 in series [1] was 3.16; in series [2], 3.36; in series [4], 5.39.
In the case of `Cc1cnc(C[S+]([O-])C(c2ccccc2)c2ccccc2)s1` (configuration not stated), the IC50 entry in series [1] and in series [2] was “Not Active” in each case. Also, the negative-log IC50 (pIC50) in series [4] was 4.18.
On to `Cc1ccc([C@H](c2ccccc2)[S@@+]([O-])Cc2cncs2)cc1`, for which the pIC50 in series [1] was 3.79; in series [4] it was 5.48. For the same molecule, in series [2], the IC50 result was “Not Active”.
Turning to `[O-][S+](Cc1cncs1)C(c1ccc(Cl)cc1)c1ccc(Cl)cc1` (racemic), the pIC50 was 4.34 in series [1], 3.66 in series [2] and 5.38 in series [4].
For the molecule `[O-][S+](Cc1cscn1)C(c1ccccc1)c1ccc(Br)cc1` (racemic), the figures for the negative logarithm of the IC50 (pIC50) in series [1] and in series [4] were 3.96 and 5.73, respectively. In addition, the IC50 result in series [2] is listed as “Not Active”.

(Values after ChEMBL document CHEMBL4376858, “Structure-Activity Relationships of Novel Thiazole-Based Modafinil Analogues Acting at Monoamine Transporters” (J Med Chem, 2020).)
